# Results taken from BindingDB's records for doi:10.1016/j.bmcl.2012.04.093 (University of Lisbon, 2012).
# Molecular target: T1, Neutrophil elastase (Homo sapiens, UniProt P08246)
# T1 sequence (P08246 whole entry): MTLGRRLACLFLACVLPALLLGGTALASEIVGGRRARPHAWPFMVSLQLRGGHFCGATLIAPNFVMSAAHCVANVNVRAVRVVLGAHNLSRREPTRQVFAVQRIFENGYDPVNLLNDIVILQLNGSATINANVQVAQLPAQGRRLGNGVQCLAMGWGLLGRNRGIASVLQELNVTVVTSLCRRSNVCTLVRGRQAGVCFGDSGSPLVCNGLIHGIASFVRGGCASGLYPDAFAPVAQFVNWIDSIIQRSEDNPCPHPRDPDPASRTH
# Test: Inhibition of human neutrophil elastase using chromogenic substrate (N-MeOSuc-Ala-Ala-Pro-Val-p-nitroanilide after 120 mins
row,IC50,Compound
1,> 500 µM,COc1ccc(C(=O)n2c(O)c(C)oc2=O)cc1
2,> 500 µM,Cc1oc(=O)n(Cc2ccccc2)c1O
